Read-outs that look alike come from different tables or passages of the source.
How the values were obtained:
[1] = target: T1, proteasome activity in HT-29 cells (enriched in constitutive proteasome) (Homo sapiens, UniProt P28074); experiment: Inhibition of proteasome activity in cells (Proteasome-Glo), HT-29; type: cell-based; details: 2 hr incubation, Suc-LLVY-aminoluciferin, read-out: HT29 IC50
T1 construct: endogenous in cells; host or cells: HT-29
Experimental: (§1) The cell-based effects of the compound of the present disclosure on immunoproteasome were determined by measuring inhibition of proteasome activity in cells using the Proteasome-Glo™ Cell-Based Reagent (Promega, Madison Wis). The Proteasome-Glo™ assay contains a specific luminogenic proteasome substrate in a buffer optimized for cell permeabilization, proteasome activity, and luciferase activity. For the chymotrypsin-like activity, the peptide substrate is Suc-LLVY-aminoluciferin (Succinyl-leucine-leucine-valine-tyrosine-aminoluciferin). Cleavage of the substrate by proteasome results in luminescent signal which is proportional to the proteasome activity. The cell line THP-1 (a monocytic leukemia cell line enriched in immunoproteasome), the cell line HT-29 (a colorectal adenocarcinoma cell line enriched in constitutive proteasome), and primary human peripheral blood mononuclear cells (PBMC) were used to assess proteasome activity. Cells were seeded in a 96-well plate at 10,000 cells per well in RPMI 1640 high glucose medium with 10% fetal bovine serum (FBS). Compound dilutions were added to cells starting at a concentration of 5 uM and decreasing in tripling dilutions. The final DMSO concentration was 1%. The concentration range was adjusted as needed for compounds of different potencies. The cells treated with compounds were incubated for 2 hr at 37° C. in 5% CO2. At the end of the 2 hour incubation period, cells were transferred to white 384 well assay plates. 20 uL of Proteasome-Glo™ Reagent was added to each well and incubated for 10 minutes at room temperature. The plate was read in the Analyst HT instrument (Molecular Devices, Sunnyvale, Calif.) using luminescence mode. The percent inhibition of activity was plotted as a function of log compound concentration. The IC50 was then calculated for each compound using Prism software from GraphPad Software Inc. (San Diego, Calif).

immunoproteasome (LMP7) = immunoproteasome (LMP7) (Homo sapiens, UniProt P20618+P28062); experiment: Recovery of enzymatic activity upon dialysis; type: biochemical; details: FIG. 1, dialysis
Description: The dialysis assay was done to determine if a compound binds reversibly or irreversibly to immunoproteasome thereby resulting in reversible or irreversible inhibition of proteaseome activity. […] Partial or complete recovery of proteasome activity over extended periods of time during dialysis is indicative of slow off-rate kinetics due to formation of a reversible covalent bond. For rapidly reversible compounds complete recovery of proteosome activity upon dialysis is expected to be observed.
A solution containing immunoproteasome was incubated with a compound of the disclosure (test compound) or (S)-4-methyl-N—((S)-1-(((S)-4-methyl-1-((R)-2-methyloxiran-2-yl)-1-oxopentan-2-yl)amino)-1-oxo-3-phenylpropan-2-yl)-2-((S)-2-(2-morpholino-acetamido)-4-phenylbutanamido)-pentanamide (reference compound), an irreversible covalent inhibitor of the immunoproteosome which targets the catalytic threonine of the immunoproreasome subunits (see Kuhn, D. J., et al. 2007. Potent activity of carfilzomib, a novel, irreversible inhibitor of the ubiquitin-proteasome pathway, against preclinical models of multiple myeloma. Blood, 110(9), 3281-3290). […] Following dialysis, enzymatic activity was measured using the Caliper-based proteasome activity assay (Caliper Life Sciences, Hopkinton, Mass). […]

[2] = target: constitutive proteasome (B5c) (Homo sapiens, UniProt P20618+P28074); experiment: Caliper-based proteasome assay, constitutive proteasome chymotrypsin-like activity; type: biochemical; details: human recombinant constitutive proteasome 0.3 nM, FAM-labeled peptide substrate 1 μM, room temperature 3 h
Experimental: (§2) A Caliper-based proteasome assay (Caliper Life Sciences, Hopkinton, Mass.) was used to measure inhibition of the chymotrypsin-like activity of both immunoproteasome (LMP7/B5i) and the constitutive proteasome (B5c) for a compound of Formula (I). Serial dilutions of test compounds were incubated with either human recombinant immunoproteasome or constitutive proteasome (0.3 nM enzyme) and a carboxyfluorescein (FAM)-labeled peptide substrate FAM-TYETFKSIMKKSPF-NH2 (1 μM) at room temperature for 3 h. The reaction buffer was 20 mM Hepes pH 7.4, 0.01% bovine serum albumin, 0.015% SDS, 0.5 mM EDTA, 1% DMSO. The reaction was then terminated with a buffer containing the known proteasome inhibitor carfilzomib at a concentration of 5 uM. The peptide cleavage reaction product was quantified on a Caliper LabChip 3000. Percent inhibition was calculated for each compound dilution and the concentration that produced 50% inhibition was calculated. This value is presented as the IC50.

[3] = target: T2, proteasome activity in HT-29 cells (Homo sapiens, UniProt P28074); experiment: Durability of binding in cells, wash-out assay (Proteasome-Glo), HT-29; type: cell-based; details: 2 hours incubation, washout
T2 construct: endogenous in cells; host or cells: HT-29
Experimental: The durability of binding of proteasome inhibitors was assessed in cells using wash-out assays and the Proteasome-Glo™ Reagent kit. THP-1 cells, HT-29 cells, or PBMC were incubated with an 8-fold dilution series of inhibitor for 2 hours. Following 2 hours of incubation, cells were washed using 3 occasions of centrifugation followed by resuspension in culture medium. Following inhibitor washout, cells were returned to culture for either 30 minutes, 4 hours, or 18 hours. Cells were then transferred to white 384 plates, and 20 uL of Proteasome-Glo™ Reagent was added to each well for 10 minutes. Plates were then read on an Analyst HT plate reader using luminescence mode. The percent inhibition of activity was plotted as a function of log compound concentration. The IC50 was then calculated for each compound using Prism software from GraphPad.

[4] = target: immunoproteasome (LMP7/B5i) (Homo sapiens, UniProt P20618+P28062); experiment: Caliper-based proteasome assay, immunoproteasome chymotrypsin-like activity; type: biochemical; details: human recombinant immunoproteasome 0.3 nM, FAM-labeled peptide substrate 1 μM, room temperature 3 h
Experimental: as §2

[5] = target: T3, proteasome activity in primary human peripheral blood mononuclear cells (PBMC) (Homo sapiens, UniProt P28062); experiment: Inhibition of proteasome activity in cells (Proteasome-Glo), PBMC; type: cell-based; details: 2 hr incubation, Suc-LLVY-aminoluciferin
T3 construct: endogenous in cells; host or cells: primary human PBMC
Experimental: as §1

[6] = test system: multiple myeloma cell lines and primary patient tumor cells; details: including those resistant to conventional and novel prior therapies; cited from earlier work
[7] = test system: B cell effector functions; details: cited from earlier work
[8] = test system: human Th1/17 differentiation; details: cited from earlier work
MRL/lpr lupus model = details: cited from earlier work
[9] = test system: murine DSS-induced colitis model; details: cited from earlier work
[10] = test system: murine collagen-induced arthritis; details: including inflammation and bone erosion; cited from earlier work
[11] = test system: mouse Th1/17 differentiation; details: cited from earlier work
[12] = test system: proinflammatory cytokines (IL-6, TNF-α, IL-23); details: cited from earlier work
[13] = test system: Hashimoto's thyroiditis model; details: autoantibody-driven model; cited from earlier work

Cc1ccc(CNC(=O)[C@H](COc2cccc(C=C(C#N)C(=O)NC(C)(C)C)c2)NC(=O)[C@@H](NC(=O)c2cc(C)on2)[C@@H](C)O)cc1 [Example 3]
IC50 [1]: 1370 nM | binding to the immunoproteosome (immunoproteasome (LMP7)): reversible | IC50 [2]: 1030 nM | IC50 ([3]; 30 minutes in culture, read-out: HT29 (30 min) IC50): > 5000 nM | IC50 ([3]; 4 hours in culture, read-out: HT29 (4 h) IC50): > 5000 nM | IC50 [4]: 27 nM | IC50 [5]: 3 nM

CC1=C(C(=O)N[C@H](C)C(=O)N[C@@H](Cc2c[nH]c3ccccc23)C(=O)N[C@@H](Cc2ccccc2)C(=O)[C@@]2(C)CO2)Cc2ccccc21 [PR-924]
growth of multiple myeloma cell lines and primary patient tumor cells [6]: inhibit growth

COc1ccc(C[C@H](NC(=O)[C@H](C)NC(=O)CN2CCOCC2)C(=O)N[C@@H](Cc2ccccc2)C(=O)[C@@]2(C)CO2)cc1 [PR-957]
B cell effector functions [7]: potently block | human Th1/17 differentiation [8]: potently block | anti-dsDNA IgG levels (MRL/lpr lupus model): reduced | disease progression (MRL/lpr lupus model): prevented disease progression | plasma cell numbers (MRL/lpr lupus model): reduced | inflammation and tissue destruction [9]: reduced inflammation and tissue destruction | disease activity in murine collagen-induced arthritis [10]: significantly inhibit disease activity | mouse Th1/17 differentiation [11]: potently block | production of proinflammatory cytokines (IL-6, TNF-α, IL-23) [12]: potently block | efficacy in Hashimoto's thyroiditis model [13]: efficacious

Source: patent US10654843B2, “LMP7 inhibitors” (PRINCIPIA BIOPHARMA INC., priority 2014, dated 2020)
